In patent US10556900B2, “TrkA kinase inhibitors, compositions and methods thereof” (Merck Sharp & Dohme Corp., priority 2015, dated 2020) one finds IC50 data, which are given here for 21 compounds.

By IC50 is commonly meant the concentration that gives 50% inhibition. Read a high IC50 as weaker potency.

This assay addresses human TrkA receptor (Homo sapiens (Human), UniProt P04629). As to the kind of experiment: TrkA functional activity, DiscoverX PathHunter assay (NGF-stimulated U2OS cells). In kind it is cell-based. Conditions: U2OS cells expressing human TrkA-Prolink, Shc1-EA and p75NTR; compound 1 h, then NGF (~80% of maximal response) 3 h; luminescence. The protocol: TrkA functional activity was measured using a DiscoverX PathHunter assay. In this assay, U2OS cells express the human TrkA receptor as a fusion with the weakly complementing fragment of B-galactosidase, which DiscoverX calls “Prolink (PK)”; additionally, Shc1 is fused with a larger fragment, which is called “Enzyme Acceptor (EA)”. Activation of the TrkA receptor, upon NGF addition, results in the kinase domain being phosphorylated, resulting in subsequent recruitment of Shc1-EA protein. That recruitment results in an active B-galactosidase enzyme that is detected by addition of a chemiluminescent substrate. The human p75^NTR protein was also expressed as a co-receptor for NGF.
All reagents were purchased from DiscoverX, except for the receptor agonists (NGF, BDNF, NT3) which were purchased from Peprotech. Cells were expanded and frozen into cryovials, and stored in the vapor phase of liquid nitrogen, and thawed immediately before use. Thawed cells were added to a 384-well plate at 7500 cells/well, and allowed to incubate overnight. Compound at various concentrations was added the following morning and allowed to incubate on cells for 1 h. Then, NGF was added at a concentration sufficient to elicit ˜80% of a maximal response and allowed to incubate for 3 h at ambient temperature. DiscoverX PathHunter detection reagent was then added and the plate was further incubated for 1 h in the dark. The plate was then read via luminescence on the Perkin Elmer Envision.

Sequence of human TrkA receptor (P04629 33-796): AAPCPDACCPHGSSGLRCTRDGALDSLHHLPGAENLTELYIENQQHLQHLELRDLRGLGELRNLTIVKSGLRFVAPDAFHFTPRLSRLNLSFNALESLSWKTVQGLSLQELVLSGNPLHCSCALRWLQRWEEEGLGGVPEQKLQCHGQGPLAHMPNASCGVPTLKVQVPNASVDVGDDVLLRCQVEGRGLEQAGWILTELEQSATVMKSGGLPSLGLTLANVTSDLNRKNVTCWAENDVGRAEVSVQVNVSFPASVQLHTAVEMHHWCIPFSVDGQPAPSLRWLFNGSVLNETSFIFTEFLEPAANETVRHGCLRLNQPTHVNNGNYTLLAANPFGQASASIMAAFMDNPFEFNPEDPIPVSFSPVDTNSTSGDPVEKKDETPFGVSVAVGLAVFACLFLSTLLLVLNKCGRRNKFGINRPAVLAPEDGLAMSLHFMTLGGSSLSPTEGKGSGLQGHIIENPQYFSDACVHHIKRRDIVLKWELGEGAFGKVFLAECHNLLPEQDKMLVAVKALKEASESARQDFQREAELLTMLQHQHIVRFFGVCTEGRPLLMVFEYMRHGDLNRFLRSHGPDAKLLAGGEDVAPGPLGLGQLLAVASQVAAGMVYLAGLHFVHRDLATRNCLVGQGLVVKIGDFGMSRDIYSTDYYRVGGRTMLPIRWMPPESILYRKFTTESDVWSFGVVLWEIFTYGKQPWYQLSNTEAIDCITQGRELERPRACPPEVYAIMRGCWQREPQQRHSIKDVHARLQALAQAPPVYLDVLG

As for `Cn1ccc(-c2cc(C(=O)Nc3c(-c4ccccc4)ccc4nc(C(C)(C)O)sc34)ccc2C(F)(F)F)n1` [Compound 3, N-(2-(2-Hydroxypropan-2-yl)-6-phenylbenzo[d]thiazol-7-yl)-3-(1-methyl-1H-pyrazol-3-yl)-4-(trifluoromethyl)benzamide], the IC50 came to 323 nM. As for `Cn1ccc(-c2cc(C(=O)Nc3c(-c4ccccc4)ccc4sc(C(C)(C)O)nc34)ccc2C(F)(F)F)n1` [Compound 4, N-(2-(2-Hydroxypropan-2-yl)-5-phenylbenzo[d]thiazol-4-yl)-3-(1-methyl-1H-pyrazol-3-yl)-4-(trifluoromethyl)benzamide], the half-inhibitory concentration (IC50) amounted to 67 nM.

Take `NC(=O)c1cnc2c(NC(=O)c3cc(-c4ncccn4)c(C(F)(F)F)cc3F)c(-c3ccccc3)ccn12` [Compound 7, 8-(2-Fluoro-5-(pyrimidin-2-yl)-4-(trifluoromethyl)benzamido)-7-phenylimidazo[1,2-a]pyridine-3-carboxamide]: the half-maximal inhibitory concentration (IC50) was 2.1 nM. Consider `O=C(Nc1c(-c2ccccc2)ccn2c(CO)cnc12)c1cc(-c2ncccn2)c(C(F)(F)F)cc1F` [Compound 8, 2-Fluoro-N-(3-(hydroxymethyl)-7-phenylimidazo[1,2-a]pyridin-8-yl)-5-(pyrimidin-2-yl)-4-(trifluoromethyl)benzamide], for which the 50% inhibitory concentration (IC50) was 6.2 nM. On to `CC(C)(O)c1cnc2c(NC(=O)c3cc(-c4ncccn4)c(C(F)(F)F)cc3F)c(-c3ccccc3)ccn12` [Compound 11, 2-Fluoro-N-(3-(2-hydroxypropan-2-yl)-7-phenylimidazo[1,2-a]pyridin-8-yl)-5-(pyrimidin-2-yl)-4-(trifluoromethyl)benzamide], for which the half-inhibitory concentration (IC50) is 4 nM. Take `Cn1ccc(-c2cc(C(=O)Nc3c(-c4ccccc4)ccn4c(C(N)=O)cnc34)ccc2C(F)(F)F)n1` [Compound 12, 8-({[3-(1-methyl-1H-pyrazol-3-yl)-4-(trifluoromethyl)phenyl]carbonyl}amino)-7-phenylimidazo[1,2-a]pyridine-3-carboxamide]: the concentration for half-maximal inhibition (IC50) was found to be 5.7 nM. For `Cn1ccc(-c2cc(C(=O)Nc3c(-c4ccccc4)ccn4c(CO)cnc34)ccc2C(F)(F)F)n1` [Compound 13, N-[3-(hydroxymethyl)-7-phenylimidazo[1,2-a]pyridin-8-yl]-3-(1-methyl-1H-pyrazol-3-yl)-4-(trifluoromethyl)benzamide], the IC50 was 2.4 nM. In the case of `Cn1ccc(-c2cc(C(=O)Nc3c(-c4ccccc4)ccn4c(C(C)(C)O)cnc34)c(F)cc2C(F)(F)F)n1` [Compound 16, 2-fluoro-N-[3-(1-hydroxy-1-methylethyl)-7-phenylimidazo[1,2-a]pyridin-8-yl]-5-(1-methyl-1H-pyrazol-3-yl)-4-(trifluoromethyl)benzamide] it was 0.2 nM; in that of `Cn1ccc(-c2cc(C(=O)Nc3c(-c4ccccc4)ccn4c(C(C)(C)O)cnc34)c(Cl)cc2C(F)(F)F)n1` [Compound 17, 2-chloro-N-[3-(1-hydroxy-1-methylethyl)-7-phenylimidazo[1,2-a]pyridin-8-yl]-5-(1-methyl-1H-pyrazol-3-yl)-4-(trifluoromethyl)benzamide], 1.1 nM. `CC(C)(O)c1cnc2c(NC(=O)c3cc(-c4ccccn4)c(C(F)(F)F)cc3Cl)c(-c3ccccc3)ccn12` [Compound 18, 2-chloro-N-[3-(1-hydroxy-1-methylethyl)-7-phenylimidazo[1,2-a]pyridin-8-yl]-5-pyridin-2-yl-4-(trifluoromethyl)benzamide] displayed an IC50 of 6.7 nM. `CC(C)(O)c1cnc2c(NC(=O)c3cc(-c4ccccn4)c(C(F)(F)F)cc3F)c(-c3ccccc3)ccn12` [Compound 19, 2-fluoro-N-[3-(1-hydroxy-1-methylethyl)-7-phenylimidazo[1,2-a]pyridin-8-yl]-5-pyridin-2-yl-4-(trifluoromethyl)benzamide] came in with a 50% inhibitory concentration (IC50) of 1.9 nM.

The compound `CC(C)(O)c1cnc2c(NC(=O)c3cc(-c4ncccn4)c(C(F)(F)F)cc3Cl)c(-c3ccccc3)ccn12` [Compound 20, 2-chloro-N-[3-(1-hydroxy-1-methylethyl)-7-phenylimidazo[1,2-a]pyridin-8-yl]-5-pyrimidin-2-yl-4-(trifluoromethyl)benzamide] came in with an IC50 of 16 nM.

Turning to `NC(=O)c1cnc2c(NC(=O)c3cc(-c4ccccn4)c(C(F)(F)F)cc3F)c(-c3ccccc3)ccn12` [Compound 21, 8-({[2-fluoro-5-pyridin-2-yl-4-(trifluoromethyl)phenyl]carbonyl}amino)-7-phenylimidazo[1,2-a]pyridine-3-carboxamide], it took 3.7 nM to reach half-maximal inhibition (IC50). With `Cn1ccc(-c2cc(C(=O)Nc3c(-c4ccccc4)ccn4c(C(N)=O)cnc34)c(F)cc2C(F)(F)F)n1` [Compound 22, 8-({[2-fluoro-5-(1-methyl-1H-pyrazol-3-yl)-4-(trifluoromethyl)phenyl]carbonyl}amino)-7-phenylimidazo[1,2-a]pyridine-3-carboxamide], the IC50 amounted to 0.51 nM.

`Cn1ccc(-c2cc(C(=O)Nc3c(-c4ccccc4)ccn4c(CO)cnc34)c(F)cc2C(F)(F)F)n1` [Compound 23, 2-fluoro-N-[3-(hydroxymethyl)-7-phenylimidazo[1,2-a]pyridin-8-yl]-5-(1-methyl-1H-pyrazol-3-yl)-4-(trifluoromethyl)benzamide] registered a half-maximal inhibitory concentration (IC50) of 0.52 nM. In turn, `O=C(Nc1c(-c2ccccc2)ccn2c(CO)cnc12)c1cc(-c2ccccn2)c(C(F)(F)F)cc1F` [Compound 24, 2-fluoro-N-[3-(hydroxymethyl)-7-phenylimidazo[1,2-a]pyridin-8-yl]-5-pyridin-2-yl-4-(trifluoromethyl)benzamide] registered an IC50 of 2.5 nM.

As to `CC(C)(O)c1cnc2c(NC(=O)c3cc(-c4cc[nH]n4)c(C(F)(F)F)cc3F)c(-c3ccccc3)ccn12` [Compound 31, 2-fluoro-N-[3-(1-hydroxy-1-methylethyl)-7-phenylimidazo[1,2-a]pyridin-8-yl]-5-(1H-pyrazol-3-yl)-4-(trifluoromethyl)benzamide], the IC50 was found to be 0.94 nM. As for `Cn1ccc(-c2cc(C(=O)Nc3c(-c4ccccc4)ccn4c(C(C)(C)O)cnc34)ccc2C(F)(F)F)n1` [Compound 32, N-[3-(1-hydroxy-1-methylethyl)-7-phenylimidazo[1,2-a]pyridin-8-yl]-3-(1-methyl-1H-pyrazol-3-yl)-4-(trifluoromethyl)benzamide], half-maximal inhibition (IC50) was put at 6.2 nM. On to `Cn1ccc(-c2cc(C(=O)Nc3c(-c4ccccc4)ncn4cnnc34)ccc2C(F)(F)F)n1` [Compound 33, 3-(1-methyl-1H-pyrazol-3-yl)-N-(7-phenyl[1,2,4]triazolo[4,3-c]pyrimidin-8-yl)-4-(trifluoromethyl)benzamide], for which the 50% inhibitory concentration (IC50) was found to be 6.3 nM. With `Cn1ccc(-c2cc(C(=O)Nc3c(-c4ccccc4)ccn4ccnc34)ccc2C(F)(F)F)n1` [Compound 34, 3-(1-Methyl-1H-pyrazol-3-yl)-N-(7-phenylimidazo[1,2-a]pyridin-8-yl)-4-(trifluoromethyl)benzamide], the 50% inhibitory concentration (IC50) amounted to 53 nM. Under `[2H]C([2H])(O)c1cnc2c(NC(=O)c3cc(-c4ncccn4)c(C(F)(F)F)cc3F)c(-c3ccccc3)ccn12` [Compound 35, 2-Fluoro-N-(3-(hydroxymethyl-d2)-7-phenylimidazo[r 12-a]pyridin-8-yl)-5-(pyrimidin-2-yl)-4-(trifluoromethyl)benzamide] stands 4.4 nM.
